Measurements published in PMC4452912 (Viruses, 2015).
Where two headings read alike, the source gives them in different places.

Assays:
[1] = biological target: CYP2D6 (Homo sapiens, UniProt P10635); experiment: CYP inhibition in human liver microsomes, CYP2D6; assay type: in vitro ADME
[2] = in vitro; assay type: cell-based; conditions: African green monkey
[3] = in vitro; assay type: in vitro ADME; conditions: human, Caco-2
[4] = in vitro; assay type: in vitro ADME; conditions: human, microsomes
[5] = in vitro; assay type: in vitro ADME; conditions: dog, microsomes
[6] = in vitro; assay type: in vitro ADME; conditions: dog, plasma
[7] = tested on: ER α-glucosidases I and II; experiment: Cellular free oligosaccharide (FOS) assay in HL60 cells; assay type: cell-based, human; conditions: 24 h, mono- and tri-glucosylated FOS
[8] = Guinea pig pharmacokinetics; assay type: in vivo, Hartley guinea pigs; conditions: Hartley; for half-life: plasma, guinea pigs
[9] = biological target: T1, ER α-glucosidase I (Bos taurus, UniProt A0A3Q1M9D9); assay type: cell-based
T1 sequence (A0A3Q1M9D9 1-839): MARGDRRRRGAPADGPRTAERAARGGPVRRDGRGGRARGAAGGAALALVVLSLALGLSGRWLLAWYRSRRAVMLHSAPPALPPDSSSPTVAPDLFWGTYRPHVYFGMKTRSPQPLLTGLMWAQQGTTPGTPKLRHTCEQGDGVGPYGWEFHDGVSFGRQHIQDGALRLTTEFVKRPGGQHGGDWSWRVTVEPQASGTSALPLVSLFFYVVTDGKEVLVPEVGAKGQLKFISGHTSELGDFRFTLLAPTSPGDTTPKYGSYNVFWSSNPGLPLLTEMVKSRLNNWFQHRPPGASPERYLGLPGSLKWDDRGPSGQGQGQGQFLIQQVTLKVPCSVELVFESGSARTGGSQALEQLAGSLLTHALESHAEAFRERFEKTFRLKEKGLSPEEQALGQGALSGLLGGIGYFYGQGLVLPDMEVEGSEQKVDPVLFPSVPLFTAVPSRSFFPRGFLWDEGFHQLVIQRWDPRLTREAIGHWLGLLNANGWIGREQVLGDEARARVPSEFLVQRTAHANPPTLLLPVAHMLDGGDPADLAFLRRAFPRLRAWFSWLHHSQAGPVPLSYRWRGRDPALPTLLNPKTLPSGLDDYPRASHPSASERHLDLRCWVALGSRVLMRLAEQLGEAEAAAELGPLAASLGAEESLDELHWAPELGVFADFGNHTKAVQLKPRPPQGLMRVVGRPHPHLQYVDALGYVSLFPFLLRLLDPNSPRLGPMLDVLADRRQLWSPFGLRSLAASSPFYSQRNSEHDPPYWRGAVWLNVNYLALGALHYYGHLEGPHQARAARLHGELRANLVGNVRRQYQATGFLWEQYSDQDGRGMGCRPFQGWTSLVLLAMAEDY

[10] = Maximum tolerated dose in guinea pigs; assay type: in vivo, Hartley guinea pigs; conditions: for MTD at 7 days: female, Hartley, guinea pig, in vivo, single bolus
[11] = biological target: CYP3A4 (Homo sapiens, UniProt P08684); experiment: CYP inhibition in human liver microsomes, CYP3A4; assay type: in vitro ADME
[12] = biological target: T2, hERG (Homo sapiens, UniProt Q12809); experiment: Functional hERG assay, automated whole-cell patch clamp in CHO cells; assay type: cell-based
T2 construct: expressed in transfected cells; host or cells: CHO

[13] = biological target: ER α-glucosidase II (Rattus norvegicus, UniProt A0A8I6GFL3); experiment: Purified enzyme inhibition, ER α-glucosidase II; assay type: biochemical; conditions: rat liver enzyme
Chain of ER α-glucosidase II (A0A8I6GFL3 33-944): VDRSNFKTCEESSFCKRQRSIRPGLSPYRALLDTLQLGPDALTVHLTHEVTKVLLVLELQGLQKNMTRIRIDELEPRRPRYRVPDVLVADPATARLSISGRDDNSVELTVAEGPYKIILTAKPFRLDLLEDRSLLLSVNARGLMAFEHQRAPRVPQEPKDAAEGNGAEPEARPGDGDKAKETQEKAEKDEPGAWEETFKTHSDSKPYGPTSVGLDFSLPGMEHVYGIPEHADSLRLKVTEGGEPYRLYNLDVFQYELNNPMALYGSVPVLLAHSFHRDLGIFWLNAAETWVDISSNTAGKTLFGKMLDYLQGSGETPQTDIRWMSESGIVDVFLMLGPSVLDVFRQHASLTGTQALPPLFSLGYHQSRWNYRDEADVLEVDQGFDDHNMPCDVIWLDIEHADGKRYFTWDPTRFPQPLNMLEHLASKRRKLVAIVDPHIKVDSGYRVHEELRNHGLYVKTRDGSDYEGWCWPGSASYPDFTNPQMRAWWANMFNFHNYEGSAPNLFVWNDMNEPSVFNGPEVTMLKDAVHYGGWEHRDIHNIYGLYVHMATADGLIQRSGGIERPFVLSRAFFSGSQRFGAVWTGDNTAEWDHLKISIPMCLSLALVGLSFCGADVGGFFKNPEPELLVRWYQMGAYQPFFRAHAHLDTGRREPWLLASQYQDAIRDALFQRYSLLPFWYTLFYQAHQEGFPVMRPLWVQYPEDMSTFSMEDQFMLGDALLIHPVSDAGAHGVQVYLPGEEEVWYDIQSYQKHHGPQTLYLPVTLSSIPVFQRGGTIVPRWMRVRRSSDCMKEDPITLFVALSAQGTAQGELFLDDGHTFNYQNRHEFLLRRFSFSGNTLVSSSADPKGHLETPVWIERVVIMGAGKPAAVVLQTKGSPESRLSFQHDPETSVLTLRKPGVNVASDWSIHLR

T2 sequence (Q12809 whole entry): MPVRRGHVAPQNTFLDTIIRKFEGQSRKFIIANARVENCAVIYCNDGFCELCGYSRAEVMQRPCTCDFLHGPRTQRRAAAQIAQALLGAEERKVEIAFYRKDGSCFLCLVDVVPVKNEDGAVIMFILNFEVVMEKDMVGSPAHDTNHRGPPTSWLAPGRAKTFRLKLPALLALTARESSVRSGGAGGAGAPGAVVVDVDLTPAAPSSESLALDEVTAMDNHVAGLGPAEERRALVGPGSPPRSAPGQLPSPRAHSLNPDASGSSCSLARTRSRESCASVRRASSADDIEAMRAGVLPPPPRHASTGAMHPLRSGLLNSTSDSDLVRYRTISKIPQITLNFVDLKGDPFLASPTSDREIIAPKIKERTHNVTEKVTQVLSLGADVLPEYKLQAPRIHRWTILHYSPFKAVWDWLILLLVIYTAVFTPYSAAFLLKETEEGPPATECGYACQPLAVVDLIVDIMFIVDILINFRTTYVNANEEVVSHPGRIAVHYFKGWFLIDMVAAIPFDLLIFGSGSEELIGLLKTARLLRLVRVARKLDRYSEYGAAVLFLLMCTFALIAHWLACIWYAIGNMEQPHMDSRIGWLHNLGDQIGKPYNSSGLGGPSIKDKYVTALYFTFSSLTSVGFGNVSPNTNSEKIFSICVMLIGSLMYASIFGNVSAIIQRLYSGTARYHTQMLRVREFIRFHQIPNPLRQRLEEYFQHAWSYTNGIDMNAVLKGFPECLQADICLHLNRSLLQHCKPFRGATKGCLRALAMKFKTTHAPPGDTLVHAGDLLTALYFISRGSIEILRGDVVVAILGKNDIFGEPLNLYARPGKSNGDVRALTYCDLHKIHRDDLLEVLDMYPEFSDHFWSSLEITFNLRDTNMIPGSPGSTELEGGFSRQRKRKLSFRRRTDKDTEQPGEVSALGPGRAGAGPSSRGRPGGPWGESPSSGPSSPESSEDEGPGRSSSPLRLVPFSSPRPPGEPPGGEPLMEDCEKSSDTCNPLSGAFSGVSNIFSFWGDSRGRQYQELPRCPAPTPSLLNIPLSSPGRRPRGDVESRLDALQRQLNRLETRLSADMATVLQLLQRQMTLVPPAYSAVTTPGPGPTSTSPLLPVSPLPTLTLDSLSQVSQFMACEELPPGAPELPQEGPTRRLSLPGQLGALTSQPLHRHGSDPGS
Chain of CYP2D6 (P10635 whole entry): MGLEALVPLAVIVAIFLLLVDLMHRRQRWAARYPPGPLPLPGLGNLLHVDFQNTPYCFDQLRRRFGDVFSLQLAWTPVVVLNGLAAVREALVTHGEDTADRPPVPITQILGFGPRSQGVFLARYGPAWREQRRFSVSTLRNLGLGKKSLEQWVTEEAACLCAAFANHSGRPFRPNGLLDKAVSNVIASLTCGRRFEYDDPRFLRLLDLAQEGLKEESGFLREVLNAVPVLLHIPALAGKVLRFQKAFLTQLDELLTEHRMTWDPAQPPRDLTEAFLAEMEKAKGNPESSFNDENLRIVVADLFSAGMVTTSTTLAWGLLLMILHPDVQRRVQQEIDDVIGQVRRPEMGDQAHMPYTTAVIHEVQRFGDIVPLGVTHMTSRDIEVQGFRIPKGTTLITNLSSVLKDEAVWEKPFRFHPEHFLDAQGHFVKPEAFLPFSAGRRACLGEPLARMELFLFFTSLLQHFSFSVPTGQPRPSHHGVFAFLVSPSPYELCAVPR
Chain of CYP3A4 (P08684 whole entry): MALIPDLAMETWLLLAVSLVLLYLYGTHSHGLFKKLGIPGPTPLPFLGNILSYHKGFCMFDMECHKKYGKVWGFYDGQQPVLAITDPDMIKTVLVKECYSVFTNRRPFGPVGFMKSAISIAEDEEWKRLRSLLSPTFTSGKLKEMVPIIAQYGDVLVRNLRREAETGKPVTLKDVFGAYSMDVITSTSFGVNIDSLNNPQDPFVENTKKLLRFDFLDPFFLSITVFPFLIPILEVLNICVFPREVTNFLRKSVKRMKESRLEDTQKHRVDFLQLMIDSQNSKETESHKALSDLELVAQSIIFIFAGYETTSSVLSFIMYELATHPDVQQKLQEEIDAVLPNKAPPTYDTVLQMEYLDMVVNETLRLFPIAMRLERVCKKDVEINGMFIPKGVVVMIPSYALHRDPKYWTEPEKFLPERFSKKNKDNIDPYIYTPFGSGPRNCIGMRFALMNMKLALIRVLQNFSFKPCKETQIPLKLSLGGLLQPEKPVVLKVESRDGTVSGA

**Q.** With `OC[C@@H]1[C@@H](O)[C@H](O)[C@@H](O)CN1CCCCCCCCC1CCCO1` (stereo partly drawn) [UV-12] as the compound, how does the IC50 [1] read?
**A.** The IC50 was over 100 µM.

**Q.** And the CC50 at 5 days [2]?
**A.** Its CC50 at 5 days is over 500 µM.

**Q.** And the efflux ratio at 10 µM [3]?
**A.** The efflux ratio at 10 µM was 4.

**Q.** And the “Liver microsome metabolic stability CLintr” value [4]?
**A.** Its value is under 0.6 mL/min/g liver.

**Q.** What about the half-life at 0.5 µM [4] of the same compound?
**A.** Its half-life at 0.5 µM is over 30 min.

**Q.** What about the “parent drug remained after 30 min” value ([4]; 0.5 h, 0.5 µM) of the same compound?
**A.** The value was 100%.

**Q.** What about the “Liver microsome metabolic stability CLintr” value [5] of the same compound?
**A.** Its value is under 0.6 mL/min/g liver.

**Q.** And the half-life at 0.5 µM [5]?
**A.** The half-life at 0.5 µM was over 30 min.

**Q.** And the “parent drug remained after 30 min” value ([5]; 0.5 h, 0.5 µM)?
**A.** The value was 100%.

**Q.** What about the fraction unbound at 6 h, 10 μM [6] of the same compound?
**A.** Its fraction unbound at 6 h, 10 μM is 0.28.

**Q.** What about the “inhibition of ER α-glucosidase enzymes in cell-based FOS assay” value [7] of the same compound?
**A.** Its value is “inhibited”.

**Q.** What about the Cmax ([8]; in vivo) of the same compound?
**A.** The Cmax was 8850 to 11600 ng/mL.

**Q.** And the Tmax ([8]; in vivo)?
**A.** Its Tmax is 15 to 30 min.

**Q.** What about the AUC(0-inf) ([8]; female, in vivo, im, 100 mg/kg) of the same compound?
**A.** Its AUC(0-inf) is 19200 ng·h/mL.

**Q.** What about the AUC(0-t) ([8]; female, in vivo, im, 100 mg/kg) of the same compound?
**A.** Its AUC(0-t) is 19100 ng·h/mL.

**Q.** And the Cmax ([8]; female, in vivo, im, 100 mg/kg)?
**A.** The Cmax was 11600 ng/mL.

**Q.** What about the Tmax ([8]; female, in vivo, im, 100 mg/kg) of the same compound?
**A.** The Tmax was 15 min.

**Q.** And the bioavailability ([8]; female, in vivo, im, 100 mg/kg)?
**A.** The bioavailability was 109%.

**Q.** What about the “Vss relative to normal body water” value ([8]; female, in vivo, iv) of the same compound?
**A.** Its value is over 8 fold.

**Q.** What about the AUC(0-inf) ([8]; female, in vivo, iv, 25 mg/kg) of the same compound?
**A.** Its AUC(0-inf) is 4400 ± 599 ng·h/mL.

**Q.** What about the AUC(0-t) ([8]; female, in vivo, iv, 25 mg/kg) of the same compound?
**A.** The AUC(0-t) was 4370 ± 583 ng·h/mL.

**Q.** And the Cmax ([8]; female, in vivo, iv, 25 mg/kg)?
**A.** The Cmax was 8860 ng/mL.

**Q.** What about the Vd ([8]; female, in vivo, iv, 25 mg/kg) of the same compound?
**A.** The Vd was 5.14 ± 0.64 L/kg.

**Q.** What about the clearance ([8]; female, in vivo, iv, 25 mg/kg) of the same compound?
**A.** The clearance was 95.9 ± 12.7 mL/min/kg.

**Q.** And the AUC(0-inf) ([8]; female, in vivo, sc, 100 mg/kg)?
**A.** Its AUC(0-inf) is 23100 ng·h/mL.

**Q.** And the AUC(0-t) ([8]; female, in vivo, sc, 100 mg/kg)?
**A.** The AUC(0-t) was 23000 ng·h/mL.

**Q.** And the Cmax ([8]; female, in vivo, sc, 100 mg/kg)?
**A.** Its Cmax is 11000 ng/mL.

**Q.** What about the Tmax ([8]; female, in vivo, sc, 100 mg/kg) of the same compound?
**A.** Its Tmax is 30 min.

**Q.** What about the bioavailability ([8]; female, in vivo, sc, 100 mg/kg) of the same compound?
**A.** Its bioavailability is 131%.

**Q.** And the half-life ([8]; female, IM 100 mg/kg)?
**A.** The half-life was 119 ± 54.6 min.

**Q.** What about the half-life ([8]; female, IV 25 mg/kg) of the same compound?
**A.** Its half-life is 84 ± 5.4 min.

**Q.** What about the half-life ([8]; female, SC 100 mg/kg) of the same compound?
**A.** Its half-life is 133 ± 22.2 min.

**Q.** And the “cellular half-life of UV-12 inhibition (blockage of α-glucosidase I)” value [9]?
**A.** Its value is 307 ± 109 min.

**Q.** And the “reversibility of inhibition in cells” value ([9]; MDBK cells)?
**A.** Its value is “reversible inhibitor”.

**Q.** What about the “clinical signs and mortality, 7 days observation” value ([10]; IM 20-100 mg/kg, IV 10-80 mg/kg) of the same compound?
**A.** Its value is “no clinical signs of toxicity or mortality”.

**Q.** What about the MTD at 7 days ([10]; IV route) of the same compound?
**A.** Its MTD at 7 days is over 80 mg/kg.

**Q.** And the MTD at 7 days ([10]; im, intramuscular route)?
**A.** The MTD at 7 days was over 100 mg/kg.

**Q.** And the IC50 [11]?
**A.** Its IC50 is over 100 µM.

**Q.** And the inhibition at 30 µM ([12]; human, CHO cells stably transfected with hERG, 30 μM, read-out: inhibition of hERG current)?
**A.** The inhibition at 30 µM was 18.2%.

**Q.** And the inhibition at 100 µM ([12]; human, CHO cells stably transfected with hERG, 100 μM, read-out: inhibition of hERG current)?
**A.** Its inhibition at 100 µM is 4.6%.

**Q.** And the inhibition at 300 µM ([12]; human, CHO cells stably transfected with hERG, 300 μM, read-out: inhibition of hERG current)?
**A.** Its inhibition at 300 µM is 19.1%.

**Q.** And the IC50 ([12]; patch clamp, CHO-hERG, read-out: hERG Inhibition)?
**A.** Its IC50 is over 300 µM.

**Q.** And the IC50 ([13]; Glc1 substrate, mean and SD, triplicate, read-out: IC50 α-glc II, Glc1)?
**A.** Its IC50 is 0.83 ± 0.37 µM.

**Q.** And the IC50 ([13]; Glc2 substrate, mean and SD, triplicate, read-out: IC50 α-glc II, Glc2)?
**A.** The IC50 was 1.1 ± 0.48 µM.

**Q.** What about the IC50 ([13]; range over the two activities (Glc2, Glc1), read-out: IC50 for α-glucosidase II) of the same compound?
**A.** Its IC50 is 0.83 to 1.1 µM.
